Laboratory results: patent publication US10745382B2 (BRISTOL-MYERS SQUIBB COMPANY, priority 2015, dated 2020)
Values belong to the compound of their own block, whether it stands above or below them.

Target: T1, PD-1/PD-L1 (Homo sapiens, UniProt Q9NZQ7)
T1 construct: made in house; host or cells: HEK293T
Assay: PD-1/PD-L1 Homogenous Time-Resolved Fluorescence (HTRF) binding assay
Settings: PD-L1-His 10 nM, PD-1-Ig 20 nM; value given as range class; read-out: Range or IC50
How it was run: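 Compounds are tested for blocking the PD-1/PD-L1 interaction in dPBS supplemented with 0.1% BSA and 0.05% (v/v) Tween-20. Tagged proteins are detected with Eu-cryptate anti-Ig and APC anti-His at 1 and 20 nM final.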

T1 sequence (Q9NZQ7 with tags, fused parts or gaps): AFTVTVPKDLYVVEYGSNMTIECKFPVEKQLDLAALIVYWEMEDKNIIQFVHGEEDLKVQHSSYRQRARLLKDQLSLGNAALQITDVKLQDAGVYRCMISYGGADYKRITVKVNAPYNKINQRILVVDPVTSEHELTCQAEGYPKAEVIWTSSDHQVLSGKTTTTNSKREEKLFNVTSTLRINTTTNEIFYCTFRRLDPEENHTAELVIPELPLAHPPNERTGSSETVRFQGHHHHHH

SMILES: Cc1c(COc2cc(OCc3cncc(C#N)c3)c(CN[C@](C)(CO)C(=O)O)cc2Cl)cccc1-c1cccc(OCCCN2CCC(CO)(C(=O)O)C2)c1C (some centres unmarked) [Example 1051]
IC50: 0.21 to 10 nM

SMILES: Cc1c(COc2cc(OCc3cncc(C#N)c3)c(CN[C@H](CO)C(=O)O)cc2Cl)cccc1-c1cccc(OCCCN2CCC(CO)(C(=O)O)C2)c1C (stereo partly drawn) [Example 1052, 1-(3-((3′-((4-((((R)-1-carboxy-2-hydroxyethyl)amino)methyl)-2-chloro-5-((5-cyanopyridin-3-yl)methoxy)phenoxy)methyl)-2,2′-dimethyl-[1,1′-biphenyl]-3-yl)oxy)propyl)-3-(hydroxymethyl)pyrrolidine-3-carboxylic Acid]
IC50: 0.21 to 10 nM

SMILES: Cc1c(COc2cc(OCc3cncc(C(N)=O)c3)c(CN[C@H](CO)C(=O)O)cc2Cl)cccc1-c1cccc(OCCCN2CCC(CO)(C(=O)O)C2)c1C (stereo partly drawn) [Example 1053, 1-(3-((3′-((5-((5-carbamoylpyridin-3-yl)methoxy)-4-((((R)-1-carboxy-2-hydroxyethyl)amino)methyl)-2-chlorophenoxy)methyl)-2,2′-dimethyl-[1,1′-biphenyl]-3-yl)oxy)propyl)-3-(hydroxymethyl)pyrrolidine-3-carboxylic Acid]
IC50: 0.21 to 10 nM

SMILES: Cc1c(COc2cc(OCc3cncc(C#N)c3)c(CN[C@](C)(CO)C(=O)O)cc2Cl)cccc1-c1cccc(OCCCN2CCC(O)(C(=O)O)C2)c1C (stereo partly drawn) [Example 1054, 1-(3-((3′-((4-((((R)-2-carboxy-1-hydroxypropan-2-yl)amino)methyl)-2-chloro-5-((5-cyanopyridin-3-yl)methoxy)phenoxy)methyl)-2,2′-dimethyl-[1,1′-biphenyl]-3-yl)oxy)propyl)-3-hydroxypyrrolidine-3-carboxylic Acid]
IC50: 0.21 to 10 nM

SMILES: COC(=O)C1(O)CCN(CCCOc2cccc(-c3cccc(COc4cc(OCc5cncc(S(C)(=O)=O)c5)c(CN[C@](C)(CO)C(=O)O)cc4Cl)c3C)c2C)C1 (stereo partly drawn) [Example 1055, (2R)-2-((5-chloro-4-((3′-(3-(3-hydroxy-3-(methoxycarbonyl)pyrrolidin-1-yl)propoxy)-2,2′-dimethyl-[1,1′-biphenyl]-3-yl)methoxy)-2-((5-(methylsulfonyl)pyridin-3-yl)methoxy)benzyl)amino)-3-hydroxy-2-methylpropanoic Acid]
IC50: 0.21 to 10 nM

SMILES: COC(=O)C1(O)CCN(CCCOc2cccc(-c3cccc(COc4cc(OCc5cncc(S(C)(=O)=O)c5)c(CN[C@H](CO)C(=O)O)cc4Cl)c3C)c2C)C1 (stereo partly drawn) [Example 1056, (2R)-2-((5-chloro-4-((3′-(3-(3-hydroxy-3-(methoxycarbonyl)pyrrolidin-1-yl)propoxy)-2,2′-dimethyl-[1,1′-biphenyl]-3-yl)methoxy)-2-((5-(methylsulfonyl)pyridin-3-yl)methoxy)benzyl)amino)-3-hydroxypropanoic Acid]
IC50: 0.21 to 10 nM

SMILES: Cc1c(COc2cc(OCc3cncc(C(N)=O)c3)c(CN[C@](C)(CO)C(=O)O)cc2Cl)cccc1-c1cccc(OCCCN2CCC(O)(C(=O)O)C2)c1C (stereo partly drawn) [Example 1057, 1-(3-((3′-((5-((5-carbamoylpyridin-3-yl)methoxy)-4-((((R)-2-carboxy-1-hydroxypropan-2-yl)amino)methyl)-2-chlorophenoxy)methyl)-2,2′-dimethyl-[1,1′-biphenyl]-3-yl)oxy)propyl)-3-hydroxypyrrolidine-3-carboxylic Acid]
IC50: 0.21 to 10 nM

SMILES: Cc1c(COc2cc(OCc3cncc(C#N)c3)c(CN[C@](C)(CO)C(=O)O)cc2Cl)cccc1-c1cccc(OCCCN2CCC(O)CC2)c1C [Example 1059, (R)-2-((5-chloro-2-((5-cyanopyridin-3-yl)methoxy)-4-((3′-(3-(4-hydroxypiperidin-1-yl)propoxy)-2,2′-dimethyl-[1,1′-biphenyl]-3-yl)methoxy)benzyl)amino)-3-hydroxy-2-methylpropanoic Acid]
IC50: 0.21 to 10 nM

SMILES: Cc1c(COc2cc(OCc3cncc(C#N)c3)c(CN[C@H](CO)C(=O)O)cc2Cl)cccc1-c1cccc(OCCCN2CCC(O)CC2)c1C [Example 1060, (R)-2-((5-chloro-2-((5-cyanopyridin-3-yl)methoxy)-4-((3′-(3-(4-hydroxypiperidin-1-yl)propoxy)-2,2′-dimethyl-[1,1′-biphenyl]-3-yl)methoxy)benzyl)amino)-3-hydroxypropanoic Acid]
IC50: 0.21 to 10 nM

SMILES: Cc1c(COc2cc(OCc3cncc(C#N)c3)c(CN3CCCC[C@H]3C(=O)O)cc2Cl)cccc1-c1cccc(OCCCN2CCC(O)(C(=O)O)CC2)c1C [Example 1061, (S)-1-(4-((3′-(3-(4-carboxy-4-hydroxypiperidin-1-yl)propoxy)-2,2′-dimethyl-[1,1′-biphenyl]-3-yl)methoxy)-5-chloro-2-((5-cyanopyridin-3-yl)methoxy)benzyl)piperidine-2-carboxylic Acid]
IC50: 0.21 to 10 nM

SMILES: COC(=O)[C@@H]1C[C@@H](O)CN1CCCOc1cccc(-c2cccc(COc3cc(OCc4cncc(S(C)(=O)=O)c4)c(CN[C@](C)(CO)C(=O)O)cc3Cl)c2C)c1Cl [Example 1068, (R)-2-((5-chloro-4-((2′-chloro-3′-(3-((2S,4R)-4-hydroxy-2-(methoxycarbonyl)pyrrolidin-1-yl)propoxy)-2-methyl-[1,1′-biphenyl]-3-yl)methoxy)-2-((5-(methylsulfonyl)pyridin-3-yl)methoxy)benzyl)amino)-3-hydroxy-2-methylpropanoic Acid]
IC50: 0.21 to 10 nM

SMILES: COC(=O)[C@@H]1C[C@@H](O)CN1CCCOc1cccc(-c2cccc(COc3cc(OCc4cncc(S(C)(=O)=O)c4)c(CN4CCCC[C@H]4C(=O)O)cc3Cl)c2C)c1Cl [Example 1069, (S)-1-(5-chloro-4-((2′-chloro-3′-(3-((2S,4R)-4-hydroxy-2-(methoxycarbonyl)pyrrolidin-1-yl)propoxy)-2-methyl-[1,1′-biphenyl]-3-yl)methoxy)-2-((5-(methylsulfonyl)pyridin-3-yl)methoxy)benzyl)piperidine-2-carboxylic Acid]
IC50: 0.21 to 10 nM

Now from value to compound:

IC50: 0.21 to 10 nM
SMILES: Cc1c(COc2cc(OCc3cncc(C#N)c3)c(CN3CCCC[C@H]3C(=O)O)cc2Cl)cccc1-c1cccc(OC[C@@H]2CCCN3CCCC[C@H]23)c1C [Example 1043, (S)-1-(5-chloro-2-((5-cyanopyridin-3-yl)methoxy)-4-((2,2′-dimethyl-3′-(((1R,9aR)-octahydro-1H-quinolizin-1-yl)methoxy)-[1,1′-biphenyl]-3-yl)methoxy)benzyl)piperidine-2-carboxylic Acid]

IC50: 0.21 to 10 nM
SMILES: CCOC(=O)C1(CO)CCN(CCCOc2cccc(-c3cccc(COc4cc(OCc5cncc(S(C)(=O)=O)c5)c(CN[C@](C)(CO)C(=O)O)cc4Cl)c3C)c2C)C1 (stereo partly drawn) [Example 1044, (2R)-2-((5-chloro-4-((3′-(3-(3-(ethoxycarbonyl)-3-(hydroxymethyl)pyrrolidin-1-yl)propoxy)-2,2′-dimethyl-[1,1′-biphenyl]-3-yl)methoxy)-2-((5-(methylsulfonyl)pyridin-3-yl)methoxy)benzyl)amino)-3-hydroxy-2-methylpropanoic Acid]

IC50: 0.21 to 10 nM
SMILES: CCOC(=O)C1(CO)CCN(CCCOc2cccc(-c3cccc(COc4cc(OCc5cncc(S(C)(=O)=O)c5)c(CN[C@H](CO)C(=O)O)cc4Cl)c3C)c2C)C1 (stereo partly drawn) [Example 1045, (2R)-2-((5-chloro-4-((3′-(3-(3-(ethoxycarbonyl)-3-(hydroxymethyl)pyrrolidin-1-yl)propoxy)-2,2′-dimethyl-[1,1′-biphenyl]-3-yl)methoxy)-2-((5-(methylsulfonyl)pyridin-3-yl)methoxy)benzyl)amino)-3-hydroxypropanoic Acid]

IC50: 0.21 to 10 nM
SMILES: COC(=O)C1(O)CCN(CCCOc2cccc(-c3cccc(COc4cc(OCc5cncc(C#N)c5)c(CN[C@](C)(CO)C(=O)O)cc4Cl)c3C)c2C)C1 (stereo partly drawn) [Example 1046, (2R)-2-((5-chloro-2-((5-cyanopyridin-3-yl)methoxy)-4-((3′-(3-(3-hydroxy-3-(methoxycarbonyl)pyrrolidin-1-yl)propoxy)-2,2′-dimethyl-[1,1′-biphenyl]-3-yl)methoxy)benzyl)amino)-3-hydroxy-2-methylpropanoic Acid]

IC50: 0.21 to 10 nM
SMILES: CCOC(=O)C1(CO)CCN(CCCOc2cccc(-c3cccc(COc4cc(OCc5cncc(C#N)c5)c(CN[C@H](CO)C(=O)O)cc4Cl)c3C)c2C)C1 (stereo partly drawn) [Example 1047, (2R)-2-((5-chloro-2-((5-cyanopyridin-3-yl)methoxy)-4-((3′-(3-(3-(ethoxycarbonyl)-3-(hydroxymethyl)pyrrolidin-1-yl)propoxy)-2,2′-dimethyl-[1,1′-biphenyl]-3-yl)methoxy)benzyl)amino)-3-hydroxypropanoic Acid]

IC50: 0.21 to 10 nM
SMILES: Cc1c(COc2cc(OCc3cncc(S(C)(=O)=O)c3)c(CN[C@](C)(CO)C(=O)O)cc2Cl)cccc1-c1cccc(OCCCN2CCC(CO)(C(=O)O)C2)c1C (stereo partly drawn) [Example 1048, 1-(3-((3′-((4-((((R)-2-carboxy-1-hydroxypropan-2-yl)amino)methyl)-2-chloro-5-((5-(methylsulfonyl)pyridin-3-yl)methoxy)phenoxy)methyl)-2,2′-dimethyl-[1,1′-biphenyl]-3-yl)oxy)propyl)-3-(hydroxymethyl)pyrrolidine-3-carboxylic Acid]

IC50: 0.21 to 10 nM
SMILES: CCOC(=O)C1(CO)CCN(CCCOc2cccc(-c3cccc(COc4cc(OCc5cncc(C#N)c5)c(CN[C@](C)(CO)C(=O)O)cc4Cl)c3C)c2C)C1 (stereo partly drawn) [Example 1049, (2R)-2-((5-chloro-2-((5-cyanopyridin-3-yl)methoxy)-4-((3′-(3-(3-(ethoxycarbonyl)-3-(hydroxymethyl)pyrrolidin-1-yl)propoxy)-2,2′-dimethyl-[1,1′-biphenyl]-3-yl)methoxy)benzyl)amino)-3-hydroxy-2-methylpropanoic Acid]

IC50: 0.21 to 10 nM
SMILES: Cc1c(COc2cc(OCc3cncc(S(C)(=O)=O)c3)c(CN[C@H](CO)C(=O)O)cc2Cl)cccc1-c1cccc(OCCCN2CCC(CO)(C(=O)O)C2)c1C (stereo partly drawn) [Example 1050, 1-(3-((3′-((4-((((R)-1-carboxy-2-hydroxyethyl)amino)methyl)-2-chloro-5-((5-(methylsulfonyl)pyridin-3-yl)methoxy)phenoxy)methyl)-2,2′-dimethyl-[1,1′-biphenyl]-3-yl)oxy)propyl)-3-(hydroxymethyl)pyrrolidine-3-carboxylic Acid]
